Test results published in PubChem BioAssay (NCI).
Several values for one entry are separate records, joined by “and”; a condition that tells them apart may be missing. Equal entries are not always repeated.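 Assay format: 96-well plates, 48-hour exposure. Here, GI50 denotes the concentration required for 50% inhibition of growth. The concentration for full growth arrest is given as TGI.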

How the values were obtained:
Assay in all cases: DTP human tumour cell line panel, 48 h
CAKI-1 renal = system: CAKI-1 renal
NCI-H522 lung = system: NCI-H522 lung
BT-549 breast = system: BT-549 breast
SF-295 CNS = system: SF-295 CNS
T-47D breast = system: T-47D breast
NCI/ADR-RES ovarian = system: NCI/ADR-RES ovarian
LOX IMVI melanoma = system: LOX IMVI melanoma
SK-OV-3 ovarian = system: SK-OV-3 ovarian
SF-539 CNS = system: SF-539 CNS
OVCAR-8 ovarian = system: OVCAR-8 ovarian

Row | Compound | GI50 (CAKI-1 renal) | TGI (CAKI-1 renal) | GI50 (NCI-H522 lung) | TGI (NCI-H522 lung) | GI50 (BT-549 breast) | TGI (BT-549 breast) | GI50 (SF-295 CNS) | TGI (SF-295 CNS) | GI50 (T-47D breast) | TGI (T-47D breast) | GI50 (NCI/ADR-RES ovarian) | TGI (NCI/ADR-RES ovarian) | GI50 (LOX IMVI melanoma) | TGI (LOX IMVI melanoma) | GI50 (SK-OV-3 ovarian) | TGI (SK-OV-3 ovarian) | GI50 (SF-539 CNS) | TGI (SF-539 CNS) | GI50 (OVCAR-8 ovarian) | TGI (OVCAR-8 ovarian)
1 | CCOc1cccc(/C=N/NC(=O)Cc2ccc(Nc3ccnc(C(F)(F)F)c3)cc2)c1O | 2.54 µM | 52.2 µM | 4.76 µM | 33.2 µM | 2.34 µM | 46.3 µM | 3.81 µM | 43.2 µM | 2.43 µM | 26 µM | 4.23 µM | > 100 µM | 1.49 µM | > 100 µM | 3.3 µM | > 100 µM | 2.03 µM | 14.5 µM | 3.27 µM | > 100 µM
2 | Nc1ccc2c(SCC(=O)Nc3ccccc3-c3ccccc3NC(=O)CSc3c4ccccc4nc4cc(N)ccc34)c3ccccc3nc2c1 |  | > 83.5 µM |  | 31.8 µM |  | 85.1 µM |  | 98 µM |  | > 63.3 µM |  | > 100 µM |  | 66.2 µM |  | > 100 µM |  | 64.8 µM |  | 73.2 µM
3 | O=C1c2c(O)ccc(O)c2C(=O)c2c(NCCNCCO)ccc(NCCNCCO)c21 |  | 1.07 µM and 0.18 µM | 0.0232 µM and 0.00969 µM and 0.0544 µM | 0.101 µM and 0.0831 µM and 0.574 µM |  | 0.5 µM and 2.11 µM and 0.54 µM |  | 0.321 µM and 0.878 µM and 0.526 µM |  | 1.05 µM and 0.652 µM and 1.5 µM | 1.41 µM and 1.64 µM and 3.86 µM | > 100 µM and 50 µM and 23.9 µM |  | 0.191 µM and 0.571 µM and 0.706 µM |  | 0.228 µM and 0.563 µM and 0.431 µM |  | 0.0705 µM and 0.699 µM and 0.244 µM |  | 0.388 µM and 0.414 µM and 0.665 µM
4 | CC[C@H](C)[C@H](NC(=O)N[C@@H](C)c1ccccc1)C(=O)N(C)[C@H](C[C@@H](OC(C)=O)c1nc(C(=O)N[C@@H](Cc2ccccc2)C[C@H](C)C(=O)OC)cs1)C(C)C | 37.2 µM | > 100 µM | 13 µM | 42.1 µM | 21.4 µM | 74.9 µM | 25.6 µM | > 100 µM | 97.9 µM | > 100 µM | 45.8 µM | > 100 µM | 30.9 µM | > 100 µM | 42.2 µM | > 100 µM | 20.2 µM | 56.6 µM | 35.4 µM | > 100 µM
5 | CC(=O)c1c(Nc2ccc(F)c(F)c2F)[nH]c2c(F)cc(F)cc2c1=O | 0.218 µM | 1.61 µM | 0.285 µM | 16.6 µM | 0.335 µM | 5.76 µM | 0.308 µM | 1.5 µM | 0.25 µM |  | 0.322 µM | 34.5 µM | 0.333 µM | 11.3 µM | 0.297 µM | 3.24 µM | 0.322 µM | 4.33 µM | 0.365 µM | > 100 µM
6 | Oc1cccc(-c2nc(N3CCOCC3)c3oc4ncccc4c3n2)c1 | 0.318 µM and 0.342 µM | 2.24 µM and 7.38 µM | 0.0654 µM and 0.0819 µM | 0.666 µM and 4.67 µM | 0.0515 µM and 0.036 µM | 1.18 µM and 1.15 µM | 1.21 µM and 1.62 µM | 4.08 µM and 4.6 µM | 0.212 µM and 0.192 µM | 1.34 µM and 0.814 µM | 0.147 µM and 0.225 µM |  | 0.158 µM and 0.151 µM | 2.33 µM and 3.02 µM | 0.0912 µM and 0.0819 µM | 0.606 µM and 0.393 µM | 0.137 µM and 0.131 µM | 0.594 µM and 0.635 µM | 0.238 µM and 0.193 µM | 6.75 µM
7 | CC(C)(C)OC(=O)n1c(Cl)c(C(=O)N=C=S)c2ccccc21 | 34.6 µM | 92 µM | 18.1 µM | 37.6 µM | 30.9 µM | 91.7 µM | 33 µM | > 100 µM | 47.8 µM | > 100 µM | 18.5 µM | 62.6 µM | 29.2 µM | > 100 µM | > 100 µM | > 100 µM | 23 µM | 55.1 µM | 23.3 µM | 66.1 µM
8 | COc1ccc(-c2cn(-c3cc(OC)c(OC)c(OC)c3)c(=O)n2-c2ccccc2)cc1 | > 100 µM | > 100 µM | 66.7 µM | > 100 µM | > 100 µM | > 100 µM | > 100 µM | > 100 µM | 27.3 µM | > 100 µM | 74.6 µM | > 100 µM | > 100 µM | > 100 µM | > 100 µM | > 100 µM | > 100 µM | > 100 µM | > 100 µM | > 100 µM
9 | COc1ccc(-c2conc2-c2ccccc2)cc1 | 0.246 µM | > 100 µM | 0.17 µM | 15.9 µM | 0.94 µM | 12.8 µM | 0.317 µM | > 100 µM | 0.329 µM | > 100 µM | 0.142 µM | > 100 µM | 0.612 µM | > 100 µM | 0.501 µM | > 100 µM | 0.272 µM | 3.87 µM | 0.604 µM | > 100 µM
10 | CCOC(=O)/N=c1\ssc(Cl)c1Cl | 14.9 µM | 29.4 µM | 3.87 µM | 95.9 µM | 2.77 µM | 7.21 µM | 16.7 µM | 33.2 µM | 17.2 µM | 42.6 µM | 4.11 µM | > 100 µM | 1.9 µM | 3.99 µM | 20.6 µM | 45.6 µM | 2.87 µM | 8.97 µM | 19.7 µM | 55.1 µM
11 | O=C(Nc1cccc(Cl)c1)c1cc(Cl)ccc1O | 0.837 µM | 5.79 µM | 0.32 µM | 1.78 µM | 0.362 µM | 1.29 µM | 1.21 µM | 3.75 µM | 1.24 µM | 7.38 µM | 1.64 µM | > 29.4 µM | 0.543 µM | 2.26 µM | 0.582 µM | 2.81 µM | 0.674 µM | 12.4 µM | 1.51 µM | 5.43 µM
